Reference: PubChem BioAssay (NCI)
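Method: 48-hour compound exposure of cells in 96-well plates, five concentrations, linear interpolation of endpoints. At the GI50, growth is halved. TGI denotes the concentration required for complete inhibition of growth.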

Columns and labels:
Experiment in all cases: DTP human tumour cell line panel, 48 h
786-0 renal = test system: 786-0 renal
A498 renal = test system: A498 renal
A549 NSCLC = test system: A549 NSCLC
ACHN renal = test system: ACHN renal
BT-549 breast = test system: BT-549 breast
CAKI-1 renal = test system: CAKI-1 renal
CCRF-CEM leukemia = test system: CCRF-CEM leukemia
COLO 205 colon = test system: COLO 205 colon
DU-145 prostate = test system: DU-145 prostate
EKVX NSCLC = test system: EKVX NSCLC
HCC-2998 colon = test system: HCC-2998 colon
HCT-116 colon = test system: HCT-116 colon
HCT-15 colon = test system: HCT-15 colon
HL-60(TB) leukemia = test system: HL-60(TB) leukemia
HOP-62 NSCLC = test system: HOP-62 NSCLC
HOP-92 NSCLC = test system: HOP-92 NSCLC
HS 578T breast = test system: HS 578T breast
HT29 colon = test system: HT29 colon
IGROV1 ovarian = test system: IGROV1 ovarian
K-562 leukemia = test system: K-562 leukemia
KM12 colon = test system: KM12 colon
M14 melanoma = test system: M14 melanoma
MALME-3M melanoma = test system: MALME-3M melanoma
MCF7 breast = test system: MCF7 breast
MDA-MB-231 breast = test system: MDA-MB-231 breast
MDA-MB-435 = test system: MDA-MB-435
MOLT-4 leukemia = test system: MOLT-4 leukemia
NCI-H226 lung = test system: NCI-H226 lung

## O=C(NCCCNc1cc(-c2cn(-c3ccccc3)nc2-c2cccc(O)c2)ccn1)Nc1cccc(C(F)(F)F)c1
786-0 renal
  GI50: 1.07 µM
  TGI: 3.71 µM
A498 renal
  GI50: 3.17 µM
  TGI: 7.18 µM
A549 NSCLC
  GI50: 3.35 µM
  TGI: 11.2 µM
ACHN renal
  GI50: 5.23 µM
  TGI: 15.5 µM
BT-549 breast
  GI50: 3.26 µM
  TGI: 7.63 µM
CAKI-1 renal
  GI50: 1.9 µM
  TGI: 12.3 µM
CCRF-CEM leukemia
  GI50: 1.71 µM
  TGI: 33.3 µM
COLO 205 colon
  GI50: 2.97 µM
  TGI: 8.72 µM
DU-145 prostate
  GI50: 4.8 µM
  TGI: 11.9 µM
EKVX NSCLC
  GI50: 3.5 µM
  TGI: 8.45 µM
HCC-2998 colon
  GI50: 1.26 µM
  TGI: 4.34 µM
HCT-116 colon
  GI50: 1.97 µM
  TGI: 6.33 µM
HCT-15 colon
  GI50: 1.06 µM
  TGI: 4.32 µM
HL-60(TB) leukemia
  GI50: 3.42 µM
  TGI: 14.5 µM
HOP-62 NSCLC
  GI50: 4.09 µM
  TGI: 9.59 µM
HOP-92 NSCLC
  GI50: 1.25 µM
  TGI: 6.01 µM
HS 578T breast
  GI50: 1.34 µM
  TGI: 7.74 µM
HT29 colon
  GI50: 1.51 µM
  TGI: 6.19 µM
IGROV1 ovarian
  GI50: 2.83 µM
  TGI: 7.89 µM
K-562 leukemia
  GI50: 1.26 µM
  TGI: 33.3 µM
KM12 colon
  GI50: 2.63 µM
  TGI: 7.39 µM
M14 melanoma
  GI50: 2.18 µM
  TGI: 6.99 µM
MALME-3M melanoma
  GI50: 1.54 µM
  TGI: 6.08 µM
MCF7 breast
  GI50: 2.73 µM
  TGI: 9.39 µM
MDA-MB-231 breast
  GI50: 2.85 µM
  TGI: 7.76 µM
MDA-MB-435
  GI50: 3.41 µM
  TGI: 7.57 µM
MOLT-4 leukemia
  GI50: 1.67 µM
  TGI: 15 µM
NCI-H226 lung
  GI50: 4.88 µM
  TGI: 11.5 µM
